According to ChEMBL document CHEMBL1143196, “Discovery of kinase inhibitors by high-throughput docking and scoring based on a transferable linear interaction energy model” (J Med Chem, 2008):

What was measured:
[1] = molecular target: Cyclin-dependent kinase 2 (Homo sapiens, UniProt P24941); assay: Inhibition of CDK2 by FRET assay
[2] = molecular target: Cyclin-dependent kinase 1/cyclin B1 (Homo sapiens, UniProt P06493); assay: Inhibition of CDK1/Cyclin B; type: protein-complex assay
[3] = Inhibition of CDK2/Cyclin A
Ephrin type-B receptor 4 = molecular target: T1, Ephrin type-B receptor 4 (Homo sapiens, UniProt P54760)
T1 sequence (P54760 whole entry): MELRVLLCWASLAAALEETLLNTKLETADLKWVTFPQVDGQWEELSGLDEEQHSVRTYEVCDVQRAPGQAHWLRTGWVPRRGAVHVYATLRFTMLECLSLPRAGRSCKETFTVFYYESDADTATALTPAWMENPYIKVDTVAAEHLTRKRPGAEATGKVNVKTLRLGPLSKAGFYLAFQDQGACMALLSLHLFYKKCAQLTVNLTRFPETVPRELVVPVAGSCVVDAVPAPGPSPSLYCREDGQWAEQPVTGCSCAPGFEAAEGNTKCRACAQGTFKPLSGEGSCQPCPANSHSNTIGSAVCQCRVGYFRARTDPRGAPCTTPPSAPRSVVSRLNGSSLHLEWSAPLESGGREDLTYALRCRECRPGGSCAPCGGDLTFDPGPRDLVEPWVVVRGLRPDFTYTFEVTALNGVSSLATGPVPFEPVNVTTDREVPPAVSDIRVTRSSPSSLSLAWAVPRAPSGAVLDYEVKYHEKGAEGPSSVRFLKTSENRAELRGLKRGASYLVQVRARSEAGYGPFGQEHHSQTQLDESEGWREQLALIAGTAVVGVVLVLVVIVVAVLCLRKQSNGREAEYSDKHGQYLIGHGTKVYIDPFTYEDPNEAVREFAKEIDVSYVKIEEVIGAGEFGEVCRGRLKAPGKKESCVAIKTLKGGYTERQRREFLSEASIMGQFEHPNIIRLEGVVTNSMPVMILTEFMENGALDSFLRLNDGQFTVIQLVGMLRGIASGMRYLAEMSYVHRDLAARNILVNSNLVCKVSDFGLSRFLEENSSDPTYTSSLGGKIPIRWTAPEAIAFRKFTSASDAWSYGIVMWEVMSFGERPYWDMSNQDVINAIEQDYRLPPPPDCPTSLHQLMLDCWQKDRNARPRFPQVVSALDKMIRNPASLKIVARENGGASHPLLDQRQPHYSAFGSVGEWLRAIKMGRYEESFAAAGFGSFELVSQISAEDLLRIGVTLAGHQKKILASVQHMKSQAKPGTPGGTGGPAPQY

Cyclin-dependent kinase 1/cyclin B1, sequence (P06493 whole entry): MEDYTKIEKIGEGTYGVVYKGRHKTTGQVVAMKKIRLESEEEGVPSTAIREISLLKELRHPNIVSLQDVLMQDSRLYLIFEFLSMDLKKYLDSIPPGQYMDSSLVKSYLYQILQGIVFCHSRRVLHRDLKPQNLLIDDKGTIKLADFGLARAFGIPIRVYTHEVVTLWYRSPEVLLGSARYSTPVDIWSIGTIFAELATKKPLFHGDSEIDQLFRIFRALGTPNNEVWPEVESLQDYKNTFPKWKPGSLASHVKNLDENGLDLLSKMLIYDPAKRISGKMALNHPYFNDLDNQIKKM
Cyclin-dependent kinase 1/cyclin B1, sequence (P14635 whole entry, further chain): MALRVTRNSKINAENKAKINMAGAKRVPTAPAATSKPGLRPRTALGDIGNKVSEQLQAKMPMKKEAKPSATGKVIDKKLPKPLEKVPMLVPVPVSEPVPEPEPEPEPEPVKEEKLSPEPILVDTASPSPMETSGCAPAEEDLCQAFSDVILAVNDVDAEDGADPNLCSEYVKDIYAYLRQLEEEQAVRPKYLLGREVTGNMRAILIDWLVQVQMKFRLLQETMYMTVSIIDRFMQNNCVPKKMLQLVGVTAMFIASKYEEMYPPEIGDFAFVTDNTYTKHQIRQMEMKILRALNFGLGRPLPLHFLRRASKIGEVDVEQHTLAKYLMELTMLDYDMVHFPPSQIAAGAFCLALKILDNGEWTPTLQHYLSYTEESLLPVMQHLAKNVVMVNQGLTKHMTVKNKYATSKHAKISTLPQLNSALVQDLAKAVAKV

## NC(=O)c1c(NC(=O)CN2C(=O)CCC2=O)sc2c1CCC2
[1]
  IC50: 7.5 µM

## CCOC(C)(COc1nc(N)nc2[nH]cnc12)OCC
[2]
  IC50: 36 µM
[3]
  IC50: 33 µM

## Cn1c(=O)[nH]c(=O)c2c1nc1n(CCCCO)c(-c3ccccc3)cn21
Ephrin type-B receptor 4
  IC50: 1.6 µM
